Reference: patent US20080045504A1, “Benzonitrile Derivatives to Treat Musculoskeletal Frailty” (PFIZER PRODUCTS INC., priority 2004, published 2008)

Legend:
[1] = target: T1, recombinant human androgen receptor (hAR) (Homo sapiens, UniProt P10275); experiment: Human androgen receptor binding analysis (3H-DHT competitive binding)
T1 construct: made in house; host or cells: baculovirus/Sf9 insect cells (crude extract)
T1 sequence (P10275 1-920): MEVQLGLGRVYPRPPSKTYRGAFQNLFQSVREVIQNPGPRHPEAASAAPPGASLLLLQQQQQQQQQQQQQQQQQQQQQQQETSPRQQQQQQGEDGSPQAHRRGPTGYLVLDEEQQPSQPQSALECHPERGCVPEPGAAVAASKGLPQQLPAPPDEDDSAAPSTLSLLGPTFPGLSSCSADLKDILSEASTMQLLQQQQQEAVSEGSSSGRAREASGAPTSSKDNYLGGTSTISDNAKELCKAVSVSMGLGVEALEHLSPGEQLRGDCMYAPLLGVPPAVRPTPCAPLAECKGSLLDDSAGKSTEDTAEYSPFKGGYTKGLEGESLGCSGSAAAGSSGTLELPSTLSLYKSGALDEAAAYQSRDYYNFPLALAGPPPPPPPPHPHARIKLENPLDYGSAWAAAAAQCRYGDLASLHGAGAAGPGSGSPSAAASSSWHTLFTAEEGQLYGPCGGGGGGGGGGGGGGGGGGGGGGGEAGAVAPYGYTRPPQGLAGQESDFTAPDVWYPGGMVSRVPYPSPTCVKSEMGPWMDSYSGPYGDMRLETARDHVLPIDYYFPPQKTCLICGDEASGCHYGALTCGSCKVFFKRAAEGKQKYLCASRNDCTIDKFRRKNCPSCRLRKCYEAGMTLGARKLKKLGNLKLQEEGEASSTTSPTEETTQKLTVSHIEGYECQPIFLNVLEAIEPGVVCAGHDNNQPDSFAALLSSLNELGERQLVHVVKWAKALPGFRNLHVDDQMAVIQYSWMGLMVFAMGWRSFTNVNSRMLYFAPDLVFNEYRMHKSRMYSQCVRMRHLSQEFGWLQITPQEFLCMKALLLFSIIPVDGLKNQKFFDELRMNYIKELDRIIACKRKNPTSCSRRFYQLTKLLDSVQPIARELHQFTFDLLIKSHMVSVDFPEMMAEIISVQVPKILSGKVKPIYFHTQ
Procedure: The following is a brief description of the assay that determines the affinity of a compound for the recombinant human androgen receptor (hAR). Competitive binding analysis is performed on baculovirus/Sf9 generated hAR extracts in the presence or absence of differing concentrations of drug and a fixed concentration of ^3H-dihydrotestosterone (^3H-DHT) as tracer. This binding assay method is a modification of a protocol previously described (Chang, et. al. J. Steroid Biochem. 20(1):11-17 1984). Briefly, progressively decreasing concentrations of compounds are incubated in the presence of hAR extract (Chang et al. P.N.A.S. Vol. 89, pp. 5546-5950, 1992), hydroxylapatite and 1 nM ^3H-DHT for one hour at 4° C. Subsequently, the binding reactions are washed three times to completely remove excess unbound ^3H-DHT. hAR bound ^3H-DHT levels are determined in the presence of compounds (=competitive binding) and compared to levels bound when no competitor is present (=maximum binding). Compound binding affinity to the hAR is expressed as the concentration of compound at which one half of the maximum binding is inhibited (the IC50).

[2] = test system: orchiectomized (ORX) immature male rat; experiment: Orchiectomized immature rat assay (levator ani and ventral prostate weights); format: in vivo, Sprague Dawley rat; details: 4 days, TP 10 mg/kg = 100%, ORX control = 0%; for % TP Control LA: levator ani weight; for % TP Control VP: ventral prostate weight
Procedure: All animal studies were performed in accordance with the Guide for Care and Use of Laboratory Animals (National Research Council, 1996). Twenty-one day old male Sprague Dawley rats were acquired from Taconic, Inc, Germantown, N.Y. Rats were housed five per cage at standard vivarium conditions ([…], 12-h light/dark cycle), with normal chow diet and tap water ad libitum. At 25 days of age, the rats underwent bilateral orchiectomy surgery (ORX) after sedation with 3-5% Isoflurane. Following the surgery, the animals were treated immediately by daily subcutaneous (s.c.) injection with vehicle (sesame oil), testosterone propionate (TP, 10 mg/kg) and test compounds. The dosage of test compound administered is in mg/kg. At the end of the 4 days of administrations, the animals were sacrificed in a carbon dioxide chamber, the ventral prostate (VP) and levator ani muscle complex (LA) were removed and weighed. The increase in the weights of VP or LA by TP was expressed as 100%, and the ORX control as baseline, 0%; the response of the test compounds was calculated as the percentage increase compared to TP.

[3] = test system: aged intact or orchidectomized (ORX) male rat; experiment: Effect on body weight, body composition and bone density in the aged intact and orchidectomized male rat; format: in vivo, SD rat
Procedure: The purpose of this study is to test the effects of test compound in aged intact or orchidectomized (ORX) male rat model.
Male SD rats at 11 months of age were sham-operated or ORX. One day post-surgery they were treated with test compound by subcutaneous injections (s.c.) at the average dose of 3 or 10 mg/kg per day for 8 weeks. The subcutaneous injections were given 2 times (Tuesday and Friday) per week with the first injection (Tuesday) at 9 or 30 mg/kg (in sesame oil, total 0.3 ml), and the second injection (Friday) at 12 or 40 mg/kg (in sesame oil, total 0.4 ml). All rats were injected subcutaneously with calcein at 10 mg/kg on 12 and 2 days before necropsy.

[4] = Group II (sham, 3 mg/kg/d) compared to Group I (sham + vehicle)
[5] = sham and ORX rats, 3 or 10 mg/kg/d s.c. for 8 weeks
[6] = sham and ORX rats, 3 or 10 mg/kg/d s.c. for 8 weeks, dose dependant, except Group II

Q: CC[C@H]1CCCCN1c1ccc(C#N)c(C(F)(F)F)c1 [Example 1, 4-(2-(S)-Ethyl-piperidin-1-yl)-2-trifluoromethyl-benzonitrile] was tested. Which IC50 [1] did it give?
A: 5.21 nM

Q: What about the “% TP Control LA” value ([2]; 3 mg/kg s.c.) of the same compound?
A: 53%

Q: And the “% TP Control LA” value ([2]; 10 mg/kg s.c.)?
A: 93%

Q: What about the “% TP Control LA” value ([2]; 30 mg/kg s.c.) of the same compound?
A: 100%

Q: And the “% TP Control VP” value ([2]; 3 mg/kg s.c.)?
A: 11%

Q: And the “% TP Control VP” value ([2]; 10 mg/kg s.c.)?
A: 30%

Q: And the “% TP Control VP” value ([2]; 30 mg/kg s.c.)?
A: 33%

Q: And the fat body mass [3, 4]?
A: slight increase

Q: What about the lean body mass [3, 4] of the same compound?
A: slight decrease

Q: And the prostate weight ([3]; Group II sham rats (3 mg/kg/d))?
A: did not increase

Q: What about the prostate weight ([3]; Group III (sham, 10 mg/kg/d) compared to Group I) of the same compound?
A: slight increase

Q: And the prostate weight ([3]; ORX rats, 3 or 10 mg/kg/d, dose dependent)?
A: increased prostate weight in ORX rats to the level of sham controls

Q: And the levitor anni weight [3, 5]?
A: increased

Q: What about the “total density in the femoral shaft (FS)” value [3, 5] of the same compound?
A: increased

Q: What about the “trabecular density in the distal femoral metaphysis (DFM)” value [3, 5] of the same compound?
A: increased

Q: And the fat body mass [3, 6]?
A: decreased

Q: What about the lean body mass [3, 6] of the same compound?
A: increased
